{
  "source": "ChEMBL document CHEMBL5352398",
  "about": "(Eur J Med Chem, 2022)",
  "key": {"[1]": {"target": "T1, Solute carrier family 2, facilitated glucose transporter member 9 (Mus musculus) (UniProt Q3T9X0)", "T1 sequence (whole entry)": "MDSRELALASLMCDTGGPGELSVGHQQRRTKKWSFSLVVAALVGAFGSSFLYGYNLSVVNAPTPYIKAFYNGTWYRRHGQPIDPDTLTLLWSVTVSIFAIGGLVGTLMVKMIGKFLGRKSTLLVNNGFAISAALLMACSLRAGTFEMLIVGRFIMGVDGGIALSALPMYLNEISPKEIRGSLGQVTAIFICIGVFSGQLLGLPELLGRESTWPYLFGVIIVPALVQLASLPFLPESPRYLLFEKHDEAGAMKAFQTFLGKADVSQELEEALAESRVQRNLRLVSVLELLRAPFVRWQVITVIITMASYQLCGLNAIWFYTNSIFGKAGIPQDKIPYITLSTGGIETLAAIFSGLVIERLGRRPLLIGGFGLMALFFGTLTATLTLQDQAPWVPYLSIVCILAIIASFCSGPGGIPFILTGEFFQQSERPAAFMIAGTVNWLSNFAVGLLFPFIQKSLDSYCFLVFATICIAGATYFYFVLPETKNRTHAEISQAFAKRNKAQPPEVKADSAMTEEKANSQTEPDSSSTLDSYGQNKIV", "experiment": "Inhibition of mouse GLUT9 transfected in human HEK293 cells assessed as inhibition of uric acid induced current at 10 uM by cell patch-clamp assay", "assay_type": "cell-based"}, "[2]": {"experiment": "Toxicity in Kunming mouse assessed as dilated vacuolization in liver at 50 mg/kg, po and measured after 14 days by HE staining based microscopy", "assay_type": "organism-based", "conditions": "in vivo, 336 h, time 14 day"}, "Mus musculus [3]": {"system": "Mus musculus", "experiment": "Anti-hyperuricemic activity against potassium oxonate induced hyperuricemia in Kunming mouse model assessed as decrease in serum urate level at 4 mg/kg, po and measured after 3 hrs", "assay_type": "functional, organism-based"}, "[4]": {"experiment": "Hepatotoxicity in Kunming mouse assessed as increase in AST level in serum at 50 mg/kg,po for 14 days in presence of BSO", "assay_type": "toxicity, organism-based", "conditions": "in vivo, 336 h, time 14 day"}, "[5]": {"experiment": "Oral bioavailability in Sprague-Dawley rat at 5 mg/kg and measured upto 24 hrs by LCMS analysis", "assay_type": "ADME, organism-based", "conditions": "in vivo"}, "[6]": {"experiment": "AUC(0 to infinity) in Sprague-Dawley rat at 5 mg/kg, iv and measured upto 24 hrs by LC-MS/MS analysis", "assay_type": "ADME, organism-based", "set-up": "dose 5 mg/kg, time < 24 hrs, route iv", "conditions": "in vivo"}, "[7]": {"target": "T2, Solute carrier family 22 member 6 (Homo sapiens, UniProt Q4U2R8)", "T2 sequence (Q4U2R8 whole entry)": "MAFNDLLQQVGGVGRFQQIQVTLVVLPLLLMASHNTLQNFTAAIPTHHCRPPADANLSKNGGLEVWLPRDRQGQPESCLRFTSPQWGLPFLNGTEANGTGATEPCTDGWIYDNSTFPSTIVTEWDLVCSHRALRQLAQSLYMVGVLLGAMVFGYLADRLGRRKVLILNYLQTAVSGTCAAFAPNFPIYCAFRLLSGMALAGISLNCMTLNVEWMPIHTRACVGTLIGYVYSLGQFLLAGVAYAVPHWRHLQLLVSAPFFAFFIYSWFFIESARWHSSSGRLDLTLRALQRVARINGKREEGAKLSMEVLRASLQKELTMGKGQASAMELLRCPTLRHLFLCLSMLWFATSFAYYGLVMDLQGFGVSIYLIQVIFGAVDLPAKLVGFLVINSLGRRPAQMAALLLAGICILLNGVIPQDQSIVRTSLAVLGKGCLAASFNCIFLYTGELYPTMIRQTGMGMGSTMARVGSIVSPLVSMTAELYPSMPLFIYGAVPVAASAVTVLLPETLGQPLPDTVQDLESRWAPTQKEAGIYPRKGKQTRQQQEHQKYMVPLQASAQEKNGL", "experiment": "Inhibition of OAT1 (unknown origin) transfected in HEK293 cells assessed as inhibition of 6-CFL uptake preincubated for 30 mins followed by 6-CFL addition and measured for 15 mins by fluorescence based microplate reader analysis", "assay_type": "cell-based"}, "[8]": {"experiment": "Tmax in Sprague-Dawley rat at 5 mg/kg, po and measured upto 24 hrs by LC-MS/MS analysis", "assay_type": "ADME, organism-based", "conditions": "in vivo"}, "[9]": {"experiment": "Toxicity in Kunming mouse assessed as inflammatory infiltration in liver at 50 mg/kg, po administered and measured after 14 days by HE staining", "assay_type": "organism-based", "conditions": "in vivo, 336 h, time 14 day"}, "[10]": {"experiment": "Tmax in Sprague-Dawley rat at 5 mg/kg, iv and measured upto 24 hrs by LC-MS/MS analysis", "assay_type": "ADME, organism-based", "conditions": "in vivo"}, "[11]": {"experiment": "Toxicity in Kunming mouse assessed as appearance of normal glomerulus cells in kidney at 50 mg/kg, po administered and measured after 14 days by HE staining", "assay_type": "organism-based", "conditions": "in vivo, 336 h, time 14 day"}, "HepG2 [12]": {"system": "HepG2", "experiment": "Cytotoxicity against human HepG2 cells assessed as reduction in cell viability at 100 uM incubated for 72 hrs by MTT assay", "assay_type": "toxicity, cell-based", "conditions": "hepg2, 72 h"}, "[13]": {"experiment": "Subacute toxicity in Kunming mouse assessed as body weight change at 50 mg/kg,po for 14 days", "assay_type": "organism-based", "conditions": "in vivo, 336 h, time 14 day"}, "[14]": {"experiment": "MRT (0 to infinity) in Sprague-Dawley rat at 5 mg/kg, iv and measured upto 24 hrs by LC-MS/MS analysis", "assay_type": "ADME, organism-based", "conditions": "in vivo"}, "HepG2 [15]": {"system": "HepG2", "experiment": "Cytotoxicity against human HepG2 cells assessed as reduction in cell viability upto 400 uM incubated for 24 hrs by MTT assay", "assay_type": "toxicity, cell-based", "conditions": "hepg2, 24 h"}, "[16]": {"experiment": "Toxicity in Kunming mouse assessed as mild inflammatory infiltration in liver at 50 mg/kg, po and measured after 14 days by HE staining based microscopy", "assay_type": "organism-based", "conditions": "in vivo, 336 h, time 14 day"}, "[17]": {"experiment": "Hepatotoxicity in Kunming mouse assessed as reduction in serum GSH level at 50 mg/kg, ip and incubated for 12 hrs", "assay_type": "toxicity, organism-based", "conditions": "in vivo"}, "[18]": {"experiment": "Hepatotoxicity in Kunming mouse assessed as reduction in serum GSH level at 50 mg/kg, ip and incubated for 1 hr relative to control", "assay_type": "toxicity, organism-based", "set-up": "scale not given: the % may be the effect or the level left", "conditions": "in vivo"}, "[19]": {"experiment": "Cmax in Sprague-Dawley rat at 5 mg/kg, iv and measured upto 24 hrs by LC-MS/MS analysis", "assay_type": "ADME, organism-based", "set-up": "time < 24 hrs, dose 5 mg/kg, route iv", "conditions": "in vivo"}, "[20]": {"experiment": "Cytotoxicity against human HK-2 cells assessed as inhibition of cell growth at 400 uM incubated for 72 hrs by MTT assay relative to control", "assay_type": "toxicity, cell-based"}, "Mus musculus [21]": {"system": "Mus musculus", "experiment": "Anti-hyperuricemic activity against potassium oxonate induced hyperuricemia in Kunming mouse model assessed as decrease in serum urate level at 2 mg/kg, po and measured after 3 hrs", "assay_type": "functional, organism-based"}, "[22]": {"experiment": "Subacute toxicity in Kunming mouse assessed as clonic convulsion at 50 mg/kg,po for 14 days", "assay_type": "organism-based", "conditions": "in vivo, 336 h, time 14 day"}, "[23]": {"experiment": "Half life in Sprague-Dawley rat at 5 mg/kg, po and measured upto 24 hrs by LC-MS/MS analysis", "assay_type": "ADME, organism-based", "conditions": "in vivo"}, "[24]": {"experiment": "Cytotoxicity against human HepG2 cells assessed as inhibition of cell growth at 400 uM incubated for 72 hrs by MTT assay relative to control", "assay_type": "toxicity, cell-based"}, "[25]": {"experiment": "Subacute toxicity in Kunming mouse assessed as lethargy at 50 mg/kg,po for 14 days", "assay_type": "organism-based", "conditions": "in vivo, 336 h, time 14 day"}, "[26]": {"experiment": "Cmax in Sprague-Dawley rat at 5 mg/kg, po and measured upto 24 hrs by LC-MS/MS analysis", "assay_type": "ADME, organism-based", "set-up": "dose 5 mg/kg, time < 24 hrs, route po", "conditions": "in vivo"}, "[27]": {"experiment": "Toxicity in Kunming mouse assessed as inflammatory infiltration in kidney at 50 mg/kg, po administered and measured after 14 days by HE staining", "assay_type": "organism-based", "conditions": "in vivo, 336 h, time 14 day"}, "[28]": {"experiment": "AUC(0 to infinity) in Sprague-Dawley rat at 5 mg/kg, po and measured upto 24 hrs by LC-MS/MS analysis", "assay_type": "ADME, organism-based", "set-up": "time < 24 hrs, dose 5 mg/kg, route po", "conditions": "in vivo"}},
  "note": "The source made the active and inactive calls. The calls are words filed in the database; no cut-off is given here.",
  "data": [
    {"smiles": "CCc1oc2ccccc2c1C(=O)c1cc(Br)c(O)c(Br)c1", "note": "[BENZBROMARONE]", "values": [
      {"measurement": "inhibition", "setting": "[1]", "value": 26, "unit": "%"},
      {"measurement": "Activity", "setting": "[2]", "value": "Toxic"},
      {"measurement": "Activity", "setting": "Mus musculus [3]", "value": "Active"},
      {"measurement": "Activity", "setting": "[4]", "value": "Non-Toxic"},
      {"measurement": "bioavailability", "setting": "[5]", "value": 36.1, "unit": "%"},
      {"measurement": "AUC(0-inf)", "setting": "[6]", "value": 30700, "unit": "ng·h/mL"},
      {"measurement": "IC50", "setting": "[7]", "value": 2.12, "unit": "µM"},
      {"measurement": "Tmax", "setting": "[8]", "value": 0.63, "unit": "h"},
      {"measurement": "Activity", "setting": "[9]", "value": "Non-Toxic"},
      {"measurement": "Tmax", "setting": "[10]", "value": 0.5, "unit": "h"},
      {"measurement": "Activity", "setting": "[11]", "value": "Non-Toxic"},
      {"measurement": "Activity", "setting": "HepG2 [12]", "value": "Toxic"},
      {"measurement": "Activity", "setting": "[13]", "value": "Non-Toxic"},
      {"measurement": "MRT inf", "setting": "[14]", "value": 3.75, "unit": "h"},
      {"measurement": "Activity", "setting": "HepG2 [15]", "value": "Toxic"},
      {"measurement": "Activity", "setting": "[16]", "value": "Toxic"},
      {"measurement": "Activity", "setting": "[17]", "value": "Toxic"},
      {"measurement": "Activity", "setting": "[18]", "value": 74.29, "unit": "%"},
      {"measurement": "Cmax", "setting": "[19]", "value": 14700, "unit": "ng/mL"},
      {"measurement": "inhibition at 72 h, 400 µM", "setting": "[20]", "value": 40.1, "unit": "%"},
      {"measurement": "Activity", "setting": "Mus musculus [21]", "value": "Active"},
      {"measurement": "Activity", "setting": "[22]", "value": "Non-Toxic"},
      {"measurement": "half-life", "setting": "[23]", "value": 1.79, "unit": "h"},
      {"measurement": "inhibition at 72 h, 400 µM", "setting": "[24]", "value": 65.7, "unit": "%"},
      {"measurement": "Activity", "setting": "[25]", "value": "Non-Toxic"},
      {"measurement": "Cmax", "setting": "[26]", "value": 4250, "unit": "ng/mL"},
      {"measurement": "Activity", "setting": "[27]", "value": "Toxic"},
      {"measurement": "AUC(0-inf)", "setting": "[28]", "value": 11100, "unit": "ng·h/mL"}
    ]}
  ]
}
